# From PubChem BioAssay (NCI)
# “And” between values parts separate entries of the source, which are not always exact repeats. Equal values may be shown once.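 48-hour exposure; five concentrations; linearly interpolated endpoints. Here, GI50 denotes the concentration required for 50% inhibition of growth. TGI is the concentration that stops growth completely.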
# Assays:
# Assay in all cases: DTP human tumour cell line panel, 48 h
# [1] = test system: M14 melanoma
# [2] = test system: UACC-257 melanoma
# [3] = test system: UACC-62 melanoma
# [4] = test system: IGROV1 ovarian
# [5] = test system: COLO 205 colon
# [6] = test system: SK-MEL-2 melanoma
# [7] = test system: HCC-2998 colon
# [8] = test system: OVCAR-5 ovarian
# [9] = test system: PC-3 prostate
# [10] = test system: SW-620 colon
# [11] = test system: K-562 leukemia
# [12] = test system: SK-MEL-28 melanoma
# [13] = test system: CCRF-CEM leukemia
# [14] = test system: A498 renal
smiles,measurement,setting,value
c1ccc(Nc2nnc(-c3ccccc3Nc3ccccc3-c3nnc(Nc4ccccc4)s3)s2)cc1,TGI,[1],> 100 µM
same,TGI,[2],> 100 µM
same,TGI,[3],> 100 µM
same,TGI,[4],> 100 µM
same,TGI,[5],> 100 µM
same,TGI,[6],> 100 µM
same,TGI,[7],> 100 µM
same,TGI,[8],> 100 µM
same,TGI,[9],> 100 µM
same,TGI,[10],> 100 µM
same,TGI,[11],> 100 µM
same,TGI,[12],> 100 µM
same,TGI,[13],> 100 µM
CC[n+]1c(/C=C/c2cc(C(=O)OC)n3c2sc2ccccc23)sc2ccccc21,TGI,[1],34.9 µM
same,TGI,[2],33.1 µM
same,TGI,[3],30.9 µM
same,TGI,[4],32.9 µM
same,TGI,[5],65.8 µM
same,TGI,[6],39 µM
same,TGI,[7],27.8 µM
same,TGI,[8],37.3 µM
same,TGI,[11],31.2 µM
same,TGI,[13],32.6 µM
O=C1/C(=C/c2ccc([N+](=O)[O-])cc2)Oc2cc(O)ccc21,TGI,[1],> 100 µM
same,TGI,[2],> 100 µM
same,TGI,[3],> 100 µM
same,TGI,[4],> 100 µM
same,TGI,[7],> 100 µM
same,TGI,[9],66.8 µM
same,TGI,[10],> 100 µM
same,TGI,[11],46.9 µM
same,TGI,[12],> 100 µM
same,TGI,[13],79.2 µM
O=C(O)C(Cc1ccc(O)cc1)N=Cc1nc(-c2ccccc2)oc1O (stereo unspecified),TGI,[1],> 100 µM
same,TGI,[2],> 100 µM
same,TGI,[5],> 100 µM
same,TGI,[14],> 100 µM
same,TGI,[6],> 100 µM
same,TGI,[7],> 100 µM
same,TGI,[8],> 100 µM
same,TGI,[10],> 100 µM
same,TGI,[11],> 100 µM
same,TGI,[12],> 100 µM
same,TGI,[13],> 100 µM
O=C(O)c1cc(-c2ccc3cc(O)c(O)cc3c2)ccc1O,TGI,[1],> 12.5 µM
same,TGI,[2],> 12.5 µM
same,TGI,[3],> 12.5 µM
same,TGI,[4],> 12.5 µM
same,TGI,[5],> 12.5 µM
same,TGI,[14],> 12.5 µM
same,TGI,[6],> 12.5 µM
same,TGI,[8],> 12.5 µM
same,TGI,[9],> 12.5 µM
same,TGI,[10],> 12.5 µM
same,TGI,[11],> 12.5 µM
same,TGI,[12],> 12.5 µM
same,TGI,[13],> 12.5 µM
COc1cc2c(c(OC)c1OC)[C@@H]1CCCCC[C@@H]1CCC2=O,TGI,[1],> 100 µM
same,TGI,[2],> 100 µM
same,TGI,[3],> 100 µM
same,TGI,[4],> 100 µM
same,TGI,[5],> 77.3 µM
same,TGI,[14],> 100 µM
same,TGI,[6],> 100 µM
same,TGI,[7],> 100 µM
same,TGI,[8],> 100 µM
same,TGI,[10],> 100 µM
same,TGI,[11],> 72.5 µM
same,TGI,[12],> 100 µM
same,TGI,[13],> 77.8 µM
COc1cc(C(C)c2cc3c(cc2OCCCCCOc2cc4c(cc2C(C)c2cc(OC)c(OC)c(OC)c2)OCO4)OCO3)cc(OC)c1OC (stereo unspecified),TGI,[1],> 100 µM
same,TGI,[2],> 100 µM
same,TGI,[3],> 100 µM
same,TGI,[4],> 100 µM
same,TGI,[14],> 100 µM
same,TGI,[6],> 100 µM
same,TGI,[7],> 100 µM
same,TGI,[8],> 100 µM
same,TGI,[10],> 100 µM
same,TGI,[11],> 100 µM
same,TGI,[12],> 100 µM
same,TGI,[13],> 100 µM
CCOC(=O)C1Cc2ccc(C)cc2C1=O (stereo unspecified),TGI,[1],> 100 µM
same,TGI,[2],> 100 µM
same,TGI,[3],> 100 µM
same,TGI,[4],> 100 µM
same,TGI,[5],> 100 µM
same,TGI,[6],> 100 µM
same,TGI,[7],> 100 µM
same,TGI,[8],> 100 µM
same,TGI,[9],> 100 µM
same,TGI,[10],> 100 µM
same,TGI,[11],> 100 µM
same,TGI,[12],> 100 µM
same,TGI,[13],> 100 µM
COc1ccc(-n2c(C)nc3ccc(NC4OC(COC(C)=O)C(OC(C)=O)C(OC(C)=O)C4OC(C)=O)cc3c2=O)cc1 (stereo unspecified),TGI,[2],> 100 µM
same,TGI,[3],> 100 µM
same,TGI,[4],> 100 µM
same,TGI,[5],49.4 µM
same,TGI,[14],> 100 µM
same,TGI,[6],> 100 µM
same,TGI,[7],> 100 µM
same,TGI,[8],> 100 µM
same,TGI,[9],> 100 µM
same,TGI,[10],> 100 µM
same,TGI,[11],79 µM
same,TGI,[12],> 100 µM
O=C(O)CNc1ncc2c(n1)-c1ccccc1OC2,TGI,[1],> 100 µM
same,TGI,[2],> 100 µM
same,TGI,[3],> 100 µM
same,TGI,[4],> 100 µM
same,TGI,[5],> 100 µM
same,TGI,[6],> 100 µM
same,TGI,[8],> 100 µM
same,TGI,[9],> 100 µM
same,TGI,[10],> 100 µM
same,TGI,[11],> 100 µM
same,TGI,[12],> 100 µM
same,TGI,[13],> 100 µM
CC(C)(C)c1cc(C(C)(C)C)c(SSc2c(C(C)(C)C)cc(C(C)(C)C)c(O)c2O)c(O)c1O,TGI,[1],25.2 µM
same,TGI,[2],21.7 µM
same,TGI,[3],18.8 µM
same,TGI,[4],26.3 µM
same,TGI,[5],27.5 µM
same,TGI,[14],27.5 µM
same,TGI,[6],28.4 µM
same,TGI,[8],31.3 µM
same,TGI,[9],28.5 µM
same,TGI,[10],24 µM
same,TGI,[11],26.2 µM
same,TGI,[12],33.8 µM
same,TGI,[13],7.5 µM
COc1ccc(C(=O)c2[nH]c(Nc3cc(C)ccn3)c(C(=S)Nc3ccccc3)c2N)cc1,TGI,[1],42.5 µM
same,TGI,[2],32.7 µM
same,TGI,[3],26.7 µM
same,TGI,[4],42 µM
same,TGI,[5],41.5 µM
same,TGI,[14],33.1 µM
same,TGI,[6],24.2 µM
same,TGI,[7],37.4 µM
same,TGI,[8],74.1 µM
same,TGI,[9],> 100 µM
same,TGI,[10],71 µM
same,TGI,[11],> 100 µM
same,TGI,[12],34 µM
CCOC(=O)c1sc2c(c1OC(=O)c1ccco1)c(=O)n(-c1ccccc1)c(=S)n2-c1ccccc1,TGI,[1],> 100 µM
same,TGI,[2],> 100 µM
same,TGI,[3],84.3 µM
same,TGI,[4],36.3 µM
same,TGI,[5],38.1 µM
same,TGI,[14],60.4 µM
same,TGI,[7],> 100 µM
same,TGI,[8],> 100 µM
same,TGI,[9],50 µM
same,TGI,[10],> 100 µM
same,TGI,[11],> 100 µM
same,TGI,[12],> 100 µM
same,TGI,[13],> 100 µM
CC(=O)NC1=C(NCCO)C(=O)c2ccccc2C1=O,TGI,[1],> 50 µM
same,TGI,[2],> 50 µM
same,TGI,[3],> 50 µM
same,TGI,[4],> 50 µM
same,TGI,[5],> 50 µM
same,TGI,[6],> 50 µM
same,TGI,[7],> 50 µM
same,TGI,[10],> 50 µM
same,TGI,[11],> 50 µM
same,TGI,[12],> 50 µM
same,TGI,[13],> 50 µM
COc1ccc(-n2c(C)nc3ccc(NC4OCC(OC(C)=O)C(OC(C)=O)C4OC(C)=O)cc3c2=O)cc1 (stereo unspecified),TGI,[2],> 100 µM
same,TGI,[3],> 100 µM
same,TGI,[4],> 100 µM
same,TGI,[5],> 100 µM
same,TGI,[14],> 100 µM
same,TGI,[6],> 100 µM
same,TGI,[7],> 100 µM
same,TGI,[8],> 100 µM
same,TGI,[9],> 100 µM
same,TGI,[10],> 100 µM
same,TGI,[11],> 100 µM
same,TGI,[12],> 100 µM
COc1cc(CNc2ccc(C)cc2)cc(OC)c1OC,GI50,[1],0.124 µM
same,TGI,[1],> 100 µM
same,TGI,[2],> 100 µM
same,GI50,[3],0.12 µM and 0.57 µM
same,TGI,[3],> 100 µM
same,TGI,[4],> 100 µM
same,TGI,[5],0.385 µM and 1.11 µM
same,GI50,[14],> 37.5 µM
same,TGI,[14],> 74.2 µM
same,TGI,[6],> 100 µM
same,GI50,[7],0.124 µM and 0.365 µM
same,TGI,[7],1.16 µM and 2.48 µM
same,TGI,[8],> 100 µM
same,GI50,[10],0.203 µM
same,TGI,[11],> 42.3 µM and 25 µM
same,GI50,[12],0.525 µM
same,TGI,[12],> 100 µM
same,TGI,[13],> 83.6 µM
CC1(C)COC(c2cccc(C(=O)c3ccccc3)c2)=N1,TGI,[2],> 100 µM
same,TGI,[3],> 100 µM
same,TGI,[4],> 100 µM
same,TGI,[5],> 100 µM
same,TGI,[6],> 100 µM
same,TGI,[7],> 100 µM
same,TGI,[8],> 100 µM
same,TGI,[9],> 100 µM
same,TGI,[10],> 100 µM
same,TGI,[11],> 100 µM
same,TGI,[12],> 100 µM
same,TGI,[13],> 100 µM
